Reference: ChEMBL document CHEMBL5357064 (ACS Med Chem Lett, 2024)

Assays:
[1] = biological target: T1, Small conductance calcium-activated potassium channel protein 2 (Homo sapiens, UniProt Q9H2S1); experiment: Displacement of [125I]apamin from SK2 (unknown origin) expressed in HEK293 cells assessed as inhibition constant incubated for 1 hr by liquid scintillation counting analysis; format: cell-based
[2] = biological target: T1, Small conductance calcium-activated potassium channel protein 2; experiment: Displacement of [125I]apamin from human SK2 expressed in HEK293 cells assessed as inhibition constant incubated for 1 hr by liquid scintillation counting analysis; format: cell-based
[3] = biological target: Small conductance calcium-activated potassium channel protein 3 (Homo sapiens, UniProt Q9UGI6); experiment: Displacement of [125I]apamin from human SK3 expressed in HEK293 cells assessed as inhibition constant incubated for 1 hr by liquid scintillation counting analysis; format: cell-based
[4] = species on record: Homo sapiens; experiment: Selectivity ratio of Ki for human SK3 to Ki for human SK2

T1 sequence (Q9H2S1 whole entry): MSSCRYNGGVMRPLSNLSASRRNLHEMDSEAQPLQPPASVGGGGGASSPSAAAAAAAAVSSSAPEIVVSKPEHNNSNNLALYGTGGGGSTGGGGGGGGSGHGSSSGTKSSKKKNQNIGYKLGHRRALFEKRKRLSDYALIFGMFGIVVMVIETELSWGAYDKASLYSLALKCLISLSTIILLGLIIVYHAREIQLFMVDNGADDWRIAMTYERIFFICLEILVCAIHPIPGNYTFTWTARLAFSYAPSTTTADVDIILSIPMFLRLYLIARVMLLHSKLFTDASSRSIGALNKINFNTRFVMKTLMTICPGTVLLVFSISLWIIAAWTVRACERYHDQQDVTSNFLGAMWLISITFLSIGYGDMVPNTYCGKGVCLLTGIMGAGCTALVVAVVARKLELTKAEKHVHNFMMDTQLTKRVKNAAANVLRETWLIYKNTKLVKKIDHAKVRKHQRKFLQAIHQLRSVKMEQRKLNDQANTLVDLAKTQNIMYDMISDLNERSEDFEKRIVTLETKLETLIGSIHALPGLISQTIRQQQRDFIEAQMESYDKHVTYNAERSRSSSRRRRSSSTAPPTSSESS
Small conductance calcium-activated potassium channel protein 3, sequence (Q9UGI6 whole entry): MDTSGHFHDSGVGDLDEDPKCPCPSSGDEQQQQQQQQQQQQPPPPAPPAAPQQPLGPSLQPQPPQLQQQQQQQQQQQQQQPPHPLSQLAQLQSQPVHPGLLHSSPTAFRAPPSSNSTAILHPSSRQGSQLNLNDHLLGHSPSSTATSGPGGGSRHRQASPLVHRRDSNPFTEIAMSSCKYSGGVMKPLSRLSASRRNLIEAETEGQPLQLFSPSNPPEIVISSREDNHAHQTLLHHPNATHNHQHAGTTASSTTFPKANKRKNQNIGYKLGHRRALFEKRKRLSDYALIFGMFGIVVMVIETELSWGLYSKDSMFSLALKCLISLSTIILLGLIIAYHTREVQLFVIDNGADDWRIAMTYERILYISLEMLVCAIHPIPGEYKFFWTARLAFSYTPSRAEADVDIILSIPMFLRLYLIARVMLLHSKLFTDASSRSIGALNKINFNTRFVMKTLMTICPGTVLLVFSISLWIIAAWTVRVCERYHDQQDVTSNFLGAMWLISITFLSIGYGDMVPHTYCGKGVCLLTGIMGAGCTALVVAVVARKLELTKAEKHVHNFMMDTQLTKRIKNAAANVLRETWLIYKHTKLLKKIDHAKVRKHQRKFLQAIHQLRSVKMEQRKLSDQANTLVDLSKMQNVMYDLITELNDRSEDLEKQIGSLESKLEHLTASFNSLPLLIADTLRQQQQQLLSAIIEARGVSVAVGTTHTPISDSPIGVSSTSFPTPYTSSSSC

Structure (SMILES)	Ki [1]	Ki [2]	Ki [3]	Ratio Ki [4]
COc1cc2c(cc1OC)[C@H](CCC[C@H]1c3cc(OC)c(OC)cc3CCN1C)N(C)CC2	277 nM			
COc1cc2c3cc1Oc1c(OC)c(OC)cc4c1[C@@H](Cc1ccc(O)c(c1)Oc1ccc(cc1)C[C@@H]3N(C)CC2)N(C)CC4 [BERBAMINE]		284 nM	679 nM	2.17
